From patent publication US8501734B2, “Medical intervention in haematological cancers” (Oncotyrol-Center for Personalized Cancer Medicine GmbH …, priority 2008, dated 2013)

Key:
[1] = test system: peripheral blood mononuclear cells (PBMCs); assay: Annexin V/PI apoptosis assay, PBMCs from healthy donors; format: cell-based, human; settings: 40 μg/ml, 24 h
Procedure: PBMCs were prepared using separation via Ficoll density gradient centrifugation (Biochrom AG, Berlin, Germany) according to the protocol of the manufacturer.
(§1) After treatment adherent cells were trypsinized (as described before), and resuspended in corresponding full medium. Suspension cells or trypsinized adherent cells, supernatant and washing solution (1×PBS from washing before trypsinization) were pooled and then spun down (300 g for 3 min) washed in 2 ml and resuspended in 1000 of annexin V binding buffer and mixed with 2 μg/ml annexin V-Allophycocyanin (APC) (BD-Pharmingen, San Diego, Calif., USA) and 50 ng/ml of propidium iodide (PI; Sigma Aldrich). At least 10.000 cells were measured per sample using a Becton Dickinson FACSCalibur flow Cytometer (San Jose, Calif., USA). Percentage of Annexin V negative and PI negative cells were depicted in the figures. For the analysis of the pro-apoptotic activity of Imiquimod® in primary MM cells and non-malignant BMMCs, 5×10^5 cells BMMCs cells were treated with or without 40 μg/ml Imiquimod® for the indicated time periods. Cells were then harvested and washed twice with PBS. Detection of apoptotic cells was performed using the annexin V/PI assay according to manufacturers' instruction. Briefly, BMMCs were stained with a mixture of annexin V/FITC (Alexis Coorp., Laeufelfingen, Switzerland), propidium iodide (Sigma), anti-CD38-PE and anti-CD45-PC5 for 15 min at room temperature and immediately analyzed by flow cytometry. The percentages of viable cells (i.e. cells negative for annexin V/FITC and PI) within the MM (CD38^posCD45^low/absent) and non-MM fraction (CD38^neg/CD45^pos) were determined by flow cytometry.
(§2) Adherent cells were grown in 24-well plates to confluence and treated with 40 μg/ml Imiquimod® for 24 h. Cells were then trypsinized, suspended in full medium, stained for AnnexinV/PI and apoptosis was measured as described before. Suspension cells (250.000) were treated with 40 μg/ml Imiquimod® for 24 h, stained for Annexin/PI and apoptosis was measured as described above (Annexin V/Propidium Iodide apoptosis Assay).

OPM2 cells = assay: PARP cleavage assay (Western blot), OPM2 cells; format: cell-based; settings: 40 μg/ml
Procedure: Cells were lysed in lysis-IP-Buffer supplemented with protease inhibitors and sodium orthovanadate. 10 μg of lysate were separated by SDS-PAGE (10% polyacrylamide) and transferred to methanol activated Hypond-P PVDF-membranes (Amersham, Freiburg, Germany) by semi-dry blotting. Membranes were blocked in a 3% bovine serum albumin solution or 5% non fat dry milk solution in phosphate buffered saline (PBS) with 0.1% Tween 20 (PBT). Primary antibodies were applied in blocking solution for 1 h at room temperature or over night at 4° C. Membranes were washed in PBT and incubated with corresponding secondary antibodies in 5% non fat dry milk in PBT for 1 h at room temperature. Cells were washed with PBT, incubated with ECL solution and exposed in a Fluorchem 5500 (Biozym, Oldendorf, Germany).
OPM2 cells were suspended in full medium and cultured in 24-well plates at a cell density of 500.000 cells/ml and well. Cells were left untreated (control) or treated over night with different concentrations of Imiquimod® (10, 20 or 40 μg/ml).
OPM2 cells were cultured in 24-well plates as described above. Imiquimod® (40 μg/ml) was added to cells (except controls) for different time periods (2, 4, 6 and 8 h) and the extent of PARP1 cleavage, IRAK1, IkB-α and IkB-β degradation were determined by Western blot. α-Tubulin was used as a loading control.

NCI cells = assay: Annexin V/PI apoptosis assay, NCI cells; format: cell-based; settings: 40 μg/ml, 24 h
Procedure: as §1, with “For the analysis of the pro-apoptotic activity of Imiquimod® in primary MM cells and non-malignant BMMCs, 5×10^5 cells BMMCs cells were treated with or without 40 μg/ml Imiquimod® for the indicated time periods. Cells were then harvested and washed twice with PBS. Detection of apoptotic cells was performed using the annexin V/PI assay according to manufacturers' instruction.” left out
(§3) Adherent cells were grown in 24-well plates to confluence and treated with 40 μg/ml Imiquimod® for 24 h. Cells were then trypsinized, suspended in full medium, stained for AnnexinV/PI and apoptosis was measured as described before. […]

[2] = test system: human epidermoid carcinoma cell line A431; assay: Apoptosis induction in A431 cells; format: cell-based
Procedure: as §1, with “For the analysis of the pro-apoptotic activity of Imiquimod® in primary MM cells and non-malignant BMMCs, 5×10^5 cells BMMCs cells were treated with or without 40 μg/ml Imiquimod® for the indicated time periods. Cells were then harvested and washed twice with PBS. Detection of apoptotic cells was performed using the annexin V/PI assay according to manufacturers' instruction.” left out
as §3

U266 cells = assay: Annexin V/PI apoptosis assay (FACS), U266 cells; format: cell-based; parameters: apoptosis induction: unit not given here; settings: for apoptosis induction: Imi 20 μg/ml alone; as to Apoptosis induction: key: 0 for no; + for low; ++: + indicates the range of apoptosis induction; +++: + indicates the range of apoptosis induction; ++++ for very strong apoptosis induction
Procedure: as §1, §2
OPM-2 and U266 cells (2.5×10^5 in 500 μl) were treated with either Imiquimod® alone (10 μg/500 μl), various inhibitors/drugs alone or with the combination of Imiquimod® and inhibitors for 24 or 48 h. In the controls the solvent of the drug has been added in appropriate amounts. Cells were then AnnexinV/PI stained and apoptosis measured as described before.

[3] = test system: primary MM cells (CD38highCD45low); assay: Annexin V/PI apoptosis assay, primary MM cells from patient bone marrow aspirates; format: cell-based, human; settings: 40 μg/ml, 8 h or 24 h, time dependent
Procedure: For collection of primary multiple myeloma cells, bone marrow aspirates from iliac crests were collected during routine examinations after obtaining informed patient consent. Bone marrow mononuclear cells (BMMCs) were separated by density centrifugation. Fresh blood samples were diluted 1:1 with RPMI 1640 medium and layered over Biocoll separating solution (1.077 g/ml, Biochrom AG, Berlin; blood/RPMI1640/Biocoll; 1:1:1, v/v/v). Centrifugation was carried out for 20 min at 400 g. […] The percentage of multiple myeloma cells within the BMMCs was determined by flow cytometry. Briefly, 2×10^5 cells were stained for 15 min with fluorochrome-labelled antibodies to CD38 (phycoerythrin, PE) and CD45 (phycoerythrin-cyanin 5, PC5) (both from Beckman Coulter Inc., Fullerton, Calif., USA), washed with PBS and were immediately analyzed using the FC500 flow cytometer and the RXP1.0 software (Beckman Coulter). MM cells were detected by their high expression of CD38 and weak to absent expression of CD45.
After treatment adherent cells were trypsinized (as described before), and resuspended in corresponding full medium. […] At least 10.000 cells were measured per sample using a Becton Dickinson FACSCalibur flow Cytometer (San Jose, Calif., USA). […]

OPM-2 cells xenograft = format: in vivo, NIH III-nude mice
Procedure: Average tumor diameter and mouse body weight was measured every 3rd day.
Treatment was started when tumors reached an average diameter of 0.8 cm and mice were sacrificed when the tumor reached an average diameter of 1.5 cm. A maximum volume of 150 μl of Imiquimod®, in a concentration of 2.5 mg/ml in H2O, was injected subcutaneously into the left flank of the mice. The same amount of H2O was injected in the same way into control mice. Tumor volume was calculated with the formula 4π/3×(width/2)2×(length/2).

CC(C)Cn1cnc2c(N)nc3ccccc3c21 [Imiquimod, 1-(2-methylpropyl)-1H-imidazo[4,5-c]quinolin-4-amine]
sensitivity (apoptosis) ([1]; CD4+ and CD8+ cells from 12 healthy donors): nearly no sensitivity
sensitivity (apoptosis) ([1]; CD19+ cells from 12 healthy donors): only mildly affected
PARP cleavage (OPM2 cells; 2 hours after application): some PARP cleavage
apoptosis induction in PARP cleavage assay (OPM2 cells; 6 h to 8 h after application): 100%
PARP cleavage (OPM2 cells; after 6 hours): nearly complete PARP cleavage
onset of apoptosis induction (OPM2 cells; multiple myeloma cells): 2 h
apoptotic cells (NCI cells): 90%
apoptosis induction [2]: no significant apoptosis induction
cells dying upon treatment (U266 cells; 40 μg/ml, 24 h): about 30%
apoptosis induction (U266 cells; 24 h): +
apoptosis induction (U266 cells; 48 h, listed as Imi): + and ++
apoptosis induction [3]: significantly induced apoptosis
changes in tumor volume (OPM-2 cells xenograft; 10 mg/kg s.c. twice daily): ranging from tumor regression and stagnation, via slower growth to increase in tumor volume comparable to controls
histological analysis of tumors (haematoxylin and eosin) (OPM-2 cells xenograft; 10 mg/kg s.c. twice daily): regions of massive tissue destruction
tumor regression (OPM-2 cells xenograft; 10 mg/kg s.c. twice daily): 5 cases
weight development, treated versus control mice (OPM-2 cells xenograft; 10 mg/kg s.c. twice daily): no difference
survival of treated mice (OPM-2 cells xenograft; 10 mg/kg s.c. twice daily vs H2O, p=0.027, t-test): significantly increased
side effects (OPM-2 cells xenograft; 10 mg/kg s.c. twice daily, besides scars at the injection site): no obvious side effects could be observed
